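Test compounds were applied to cells in 96-well plates for 48 hours at 5 doses. Definition used: TGI = concentration required for complete inhibition of growth.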 Bounds are passed on as bounds.

Consider 11 compounds from PubChem BioAssay (NCI).

Experiment in all cases: NCI anticancer screen, dose series, 48 h
Assay [1] has as its system RXF 393 renal.
Assay [2] relates to BT-549 breast.
In assay [3] the test system is MDA-MB-435.
The test system of assay [4] is TK-10 renal.
The subject of assay [5] is UACC-257 melanoma.
Assay [6] deals with SN12C renal.
Assay [7] concerns MDA-MB-231 breast.
Assay [8] relates to UO-31 renal.
Assay [9] concerns SF-295 CNS.
The test system of assay [10] is SF-539 CNS.
The test system of assay [11] is LOX IMVI melanoma.

Consider `O=C(Nc1nc(C23CC4CC(CC(C4)C2)C3)cs1)c1cc2ccccc2oc1=O`, for which the TGI in [1], in assay [2], in assay [3], in [4], in assay [5] and in assay [6] was more than 100 µM in each case. In addition, the TGI in [7], in assay [8], in assay [9], in assay [10] and in [11] was more than 100 µM each time.

Regarding `C/C(=N\NC(=S)NCCCNC(=S)N/N=C(\C)c1ccccn1)c1ccccn1`, the TGI in assay [1] is 14.7 µM; in assay [2], 21.9 µM; in assay [3] it was more than 43.5 µM; in assay [4], 24.2 µM; in assay [5] it was 29 µM; in [6], 11.2 µM. The TGI in assay [7] is more than 49.9 µM; in assay [8], more than 54.1 µM; in assay [9] it was 46.1 µM; in assay [10], 8.72 µM; in [11], more than 51.2 µM.

As to `Oc1ccc2c(c1)-c1c(c3ccccc3n1CCN1CCOCC1)CC2`, the TGI is more than 100 µM in assay [1]; more than 100 µM in assay [2]; more than 100 µM in assay [3]; 94.4 µM in [4]; 84.6 µM in [5]; more than 100 µM in assay [6]. For the same compound, the TGI in assay [7], in assay [8], in assay [9], in assay [10] and in assay [11] was more than 100 µM throughout.

As for `O=C1Oc2cc(O)cc(/C=C/c3ccc(O)cc3)c2[C@@]12c1c(O)cc(O)cc1OC2c1cccc(O)c1` (stereo partly specified), the TGI in assay [1] is 94.3 µM; in assay [2], more than 100 µM; in [3] it was 66.1 µM; in assay [4], more than 100 µM; in [5], 67.5 µM; in assay [6] it was 78 µM. In addition, the TGI was 95.9 µM in [7]; more than 100 µM in assay [8]; 88.1 µM in [9]; more than 100 µM in [10]; 75.3 µM in assay [11].

In the case of `N#Cc1cnc(N)nc1NCC1(CO)CC(CCc2ccccc2)C1` (stereo unspecified), the TGI in assay [1], in assay [2], in assay [3], in [4], in assay [5] and in assay [6] was more than 100 µM throughout. Moreover, the TGI in assay [7], in [8], in assay [9], in assay [10] and in assay [11] was more than 100 µM in each case.

Take `O=[N+]([O-])c1cc(-c2nc(-c3ccccc3)c(-c3ccccc3)[nH]2)c(O)c([N+](=O)[O-])c1`: the TGI in assay [1] was determined as 44.8 µM; in assay [2] it was 59.8 µM; in [3] it was 95.3 µM; in assay [4], 65.8 µM; in [5], 50.9 µM; in assay [6], 77.4 µM. For the same compound, the TGI in [7] is 49.9 µM; in assay [8], 33.4 µM; in assay [9], 54.2 µM; in [10], 41.5 µM; in assay [11], 49.1 µM.

`O=c1/c(=C/c2ccc(-c3ccc(Cl)cc3Cl)o2)sc2n1[C@@H](c1ccc(Cl)cc1)C=C(c1cc(F)c(Cl)cc1Cl)N=2`: the TGI in [1], in assay [2], in assay [3], in assay [4], in [5] and in [6] was more than 100 µM throughout. Moreover, the TGI in assay [7] is 59.2 µM; in [8], more than 100 µM; in [9], more than 100 µM; in assay [10], more than 100 µM; in assay [11], more than 100 µM.

With `Cc1ccc(S(=O)(=O)NNCNC(=O)c2ccccc2)cc1`, the TGI in assay [1], in assay [2], in assay [3], in assay [4], in assay [5] and in assay [6] was more than 100 µM each time. Also, the TGI in assay [7], in [8], in [9], in assay [10] and in [11] was more than 100 µM throughout.

In the case of `CCOC(=O)C(SCCO)C(C(=O)OCC)n1ccc(=O)[nH]c1=O` (stereo unspecified), the TGI in assay [1] is 81.4 µM; in [2] it was more than 100 µM; in [3], more than 58.5 µM; in assay [4], more than 100 µM; in assay [5], more than 100 µM; in [6], more than 100 µM. Further, the TGI in assay [7] is more than 82.2 µM; in [8], more than 100 µM; in [9] it was more than 100 µM; in assay [10] it was more than 71.6 µM; in assay [11], more than 43.8 µM.

As to `CC(=O)c1cc2ccccc2oc1=O`, the TGI in [1], in [2], in assay [3], in assay [4], in [5] and in [6] was more than 100 µM each time. Moreover, the TGI in assay [7], in [8], in assay [9], in [10] and in assay [11] was more than 100 µM in each case.

Regarding `N#Cc1ccc(-n2c3ccccc3c3ccc4c(c32)C(=O)C=CC4=O)cc1`, the TGI in [1] was found to be 5.32 µM; in assay [2], 25.3 µM; in assay [3], 4.39 µM; in assay [4], 8.83 µM; in [5] it was 13.9 µM; in assay [6], 14.2 µM. Besides, the TGI in assay [7] is 8.25 µM; in assay [8], 3.02 µM; in assay [9] it was 28.2 µM; in assay [10], 18.5 µM; in assay [11] it was more than 25.4 µM.
